Measured values taken from US11034913B2, “Metal working fluid” (Henkel AG & Co. KGaA, priority 2015, dated 2021).
Entries after “also recorded” stand apart in the source; their conditions may differ.

System: mixed Gram-negative bacteria
Test: Minimum inhibitory concentration testing (biostat candidate screening, Phase 1 and Phase 2; dip slide counts)
Assay type: cell-based
Details: for Differential Value Scores, Average / Differential Value Scores, Round 1 / Differential Value Scores, Round 2 / Differential Value Scores, Round 3: Phase 1, scale 0-6, 3 = matches DCHA standard; for Differential Value Scores, Average: average of Rounds 1-3; for Differential Value Scores, Round 1 / Differential Value Scores, Round 2 / Differential Value Scores, Round 3: log bacterial counts at 24 and 48 h versus DCHA standard, higher = better; for Biostatic efficacy regarding Gram-negative bacteria compared with the DCHA standard: result in words, 3 wt. % amine in metal working fluid
[1] = Phase 2, Round 1, dilution 3 %, 24 hours
[2] = Phase 2, Round 1, dilution 3 %, 48 hours
[3] = Phase 2, Round 1, dilution 4 %, 24 hours
[4] = Phase 2, Round 1, dilution 4 %, 48 hours
[5] = Phase 2, Round 1, dilution 5 %, 24 hours
[6] = Phase 2, Round 1, dilution 5 %, 48 hours
[7] = Phase 2, Round 2, dilution 4 %, 24 hours
[8] = Phase 2, Round 2, dilution 4 %, 48 hours
[9] = Phase 2, Round 2, dilution 5 %, 24 hours
[10] = Phase 2, Round 2, dilution 5 %, 48 hours
[11] = Phase 2, Round 2, dilution 6 %, 24 hours
[12] = Phase 2, Round 2, dilution 6 %, 48 hours

With NCCCCCCN [Comparative Example C1, 1,6-diaminohexane] the “Differential Value Scores, Average” value was 2.5, the “Differential Value Scores, Round 1” value was 2 and the “Differential Value Scores, Round 2” value was 4. For the same molecule, the “Differential Value Scores, Round 3” value was 1.5.
For CCCCCCCN [Example 3, Heptylamine], the “Differential Value Scores, Average” value was 4.2, the “Differential Value Scores, Round 1” value was 4 and the “Differential Value Scores, Round 2” value was 4. The “Differential Value Scores, Round 3” value was 4.5 and the “Biostatic efficacy regarding Gram-negative bacteria compared with the DCHA standard” value was “better biostatic performance than the DCHA control”.
With CC(C)CCCC(C)N (stereo not shown) [Example 1, 1,5-dimethylhexylamine] the “Differential Value Scores, Average” value was 4.3, the “Differential Value Scores, Round 1” value was 4.5 and the “Differential Value Scores, Round 2” value was 4. For the same molecule, the “Differential Value Scores, Round 3” value was 4.5.
CCCCCCCCN [Example 6, Octylamine] was tested, and the “Biostatic efficacy regarding Gram-negative bacteria compared with the DCHA standard” value was “surpassed the DCHA standard; also recorded: better biostatic performance than the DCHA control”.
CCCCC(CC)CN(CC(CC)CCCC)CC(CC)CCCC (stereo not shown) [C9, Tris(2-ethylhexylamine)] was tested, and the “Amount of new Gram-negative bacteria colonies” value (“Amount” below) [1] was 10^7, the “Amount” value [2] was 10^7 and the “Amount” value [3] was 10^5. The “Amount” value [4] was 10^7, the “Amount” value [5] was 10^4 and the “Amount” value [6] was 10^7. The “Amount” value [7] was 10^3, the “Amount” value [8] was 10^7 and the “Amount” value [9] was 10^2. The “Amount” value [10] was 10^7, the “Amount” value [11] was 10^2 and the “Amount” value [12] was 10^7.
With NCC1CCCC(CN)C1 (stereo not shown) [C2, 1,3-bis(aminomethyl)cyclohexane] the “Differential Value Scores, Average” value was 2.5, the “Differential Value Scores, Round 1” value was 2.5 and the “Differential Value Scores, Round 2” value was 4. The “Differential Value Scores, Round 3” value was 1.
In the case of CCC(N)CCN (stereo not shown) [C10, 1,3-pentanediamine], the “Amount” value [1] is reported as 10^7, the “Amount” value [2] is reported as 10^7 and the “Amount” value [3] is reported as 10^5. For the same molecule, the “Amount” value [4] was 10^7, the “Amount” value [5] was 10^3 and the “Amount” value [6] was 10^7. For the same molecule, the “Amount” value [7] was 10^2, the “Amount” value [8] was 10^7 and the “Amount” value [9] was 10^2. The “Amount” value [10] was 10^7, the “Amount” value [11] was 10^2 and the “Amount” value [12] was 10^7.
In the case of CCCCC(CC)CN (stereo not shown) [Example 2, 2-ethylhexylamine], the “Differential Value Scores, Average” value is reported as 4.3, the “Differential Value Scores, Round 1” value is reported as 4 and the “Differential Value Scores, Round 2” value is reported as 4.5. For the same molecule, the “Differential Value Scores, Round 3” value was 4.5.
In the case of NC1CCC(CC2CCC(N)CC2)CC1 (stereo not shown) [C11, 4,4′-methylene bis(cyclohexylamine)], the “Amount” value [1] is reported as 10^7, the “Amount” value [2] is reported as 10^7 and the “Amount” value [3] is reported as 10^5. For the same molecule, the “Amount” value [4] was 10^7, the “Amount” value [5] was 10^5 and the “Amount” value [6] was 10^7. The “Amount” value [7] was 10^2, the “Amount” value [8] was 10^7 and the “Amount” value [9] was 10^2. For the same molecule, the “Amount” value [10] was 10^7, the “Amount” value [11] was 10^2 and the “Amount” value [12] was 10^7.
For CCNC1CCCCC1 [C6, N-ethylcyclohexylamine], the “Differential Value Scores, Average” value was 1.7, the “Differential Value Scores, Round 1” value was 1.5 and the “Differential Value Scores, Round 2” value was 2.5. The “Differential Value Scores, Round 3” value was 1.
With CC1CCCCC1N (stereo not shown) [C5, 2-methylcyclohexylamine] the “Differential Value Scores, Average” value was 1.7, the “Differential Value Scores, Round 1” value was 1 and the “Differential Value Scores, Round 2” value was 2.5. For the same molecule, the “Differential Value Scores, Round 3” value was 1.5.
In the case of NCC1CCCCC1 [C8, Aminomethylcyclohexane], the “Differential Value Scores, Average” value is reported as 1.5, the “Differential Value Scores, Round 1” value is reported as 1 and the “Differential Value Scores, Round 2” value is reported as 2.5. The “Differential Value Scores, Round 3” value was 1.
